Reference: ChEMBL document CHEMBL4354875, “Structural Basis for EGFR Mutant Inhibition by Trisubstituted Imidazole Inhibitors” (J Med Chem, 2020)

How the values were obtained:
[1] = target: Epidermal growth factor receptor (Homo sapiens, UniProt P00533, L858R/T790M); experiment: Inhibition of human EGFR L858R/T790M mutant using poly[Glu:Tyr] (4:1) as substrate measured in presence of [gamma-33P]ATP by radiometric assay
[2] = target: Epidermal growth factor receptor (Homo sapiens, UniProt P00533, C797S/L858R/T790M); experiment: Inhibition of human EGFR L858R/T790M/C797S mutant using poly[Glu:Tyr] (4:1) as substrate measured in presence of [gamma-33P]ATP by radiometric assay
Chain of Epidermal growth factor receptor (Homo sapiens, UniProt P00533, C797S/L858R/T790M) (P00533 25-1210 T790M/C797S/L858R limits assumed): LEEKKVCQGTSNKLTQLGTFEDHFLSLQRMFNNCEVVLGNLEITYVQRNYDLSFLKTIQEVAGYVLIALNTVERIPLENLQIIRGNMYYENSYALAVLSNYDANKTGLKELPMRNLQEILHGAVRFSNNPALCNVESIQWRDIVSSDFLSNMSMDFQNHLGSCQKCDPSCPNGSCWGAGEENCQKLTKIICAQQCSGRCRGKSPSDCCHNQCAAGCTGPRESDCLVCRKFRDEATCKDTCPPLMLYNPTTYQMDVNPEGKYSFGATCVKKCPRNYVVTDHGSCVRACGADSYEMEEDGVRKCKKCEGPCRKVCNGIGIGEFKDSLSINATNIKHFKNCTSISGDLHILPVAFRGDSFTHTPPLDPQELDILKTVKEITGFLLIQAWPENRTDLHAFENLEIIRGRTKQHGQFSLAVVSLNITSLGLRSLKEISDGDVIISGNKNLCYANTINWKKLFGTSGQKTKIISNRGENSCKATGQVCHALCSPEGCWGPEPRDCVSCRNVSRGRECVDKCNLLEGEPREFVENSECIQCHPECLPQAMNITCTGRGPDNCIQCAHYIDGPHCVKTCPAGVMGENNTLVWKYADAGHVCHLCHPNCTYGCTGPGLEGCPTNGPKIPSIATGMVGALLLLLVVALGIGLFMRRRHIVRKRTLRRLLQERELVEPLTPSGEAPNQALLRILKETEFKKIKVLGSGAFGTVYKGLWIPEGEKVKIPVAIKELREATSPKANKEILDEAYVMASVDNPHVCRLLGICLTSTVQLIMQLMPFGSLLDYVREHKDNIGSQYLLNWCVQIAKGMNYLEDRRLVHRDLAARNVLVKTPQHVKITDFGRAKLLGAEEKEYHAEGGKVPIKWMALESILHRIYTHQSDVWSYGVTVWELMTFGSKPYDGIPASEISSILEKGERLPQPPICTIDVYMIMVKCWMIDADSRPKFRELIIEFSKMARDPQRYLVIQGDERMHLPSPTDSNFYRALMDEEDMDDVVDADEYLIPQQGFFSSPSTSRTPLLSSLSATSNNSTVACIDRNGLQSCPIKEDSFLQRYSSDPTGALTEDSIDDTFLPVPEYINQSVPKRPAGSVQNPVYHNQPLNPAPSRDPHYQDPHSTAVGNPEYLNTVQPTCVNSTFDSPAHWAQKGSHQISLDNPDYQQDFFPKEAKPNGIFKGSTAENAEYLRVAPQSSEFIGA

Chain of Epidermal growth factor receptor (Homo sapiens, UniProt P00533, L858R/T790M) (P00533 25-1210 T790M/L858R limits assumed): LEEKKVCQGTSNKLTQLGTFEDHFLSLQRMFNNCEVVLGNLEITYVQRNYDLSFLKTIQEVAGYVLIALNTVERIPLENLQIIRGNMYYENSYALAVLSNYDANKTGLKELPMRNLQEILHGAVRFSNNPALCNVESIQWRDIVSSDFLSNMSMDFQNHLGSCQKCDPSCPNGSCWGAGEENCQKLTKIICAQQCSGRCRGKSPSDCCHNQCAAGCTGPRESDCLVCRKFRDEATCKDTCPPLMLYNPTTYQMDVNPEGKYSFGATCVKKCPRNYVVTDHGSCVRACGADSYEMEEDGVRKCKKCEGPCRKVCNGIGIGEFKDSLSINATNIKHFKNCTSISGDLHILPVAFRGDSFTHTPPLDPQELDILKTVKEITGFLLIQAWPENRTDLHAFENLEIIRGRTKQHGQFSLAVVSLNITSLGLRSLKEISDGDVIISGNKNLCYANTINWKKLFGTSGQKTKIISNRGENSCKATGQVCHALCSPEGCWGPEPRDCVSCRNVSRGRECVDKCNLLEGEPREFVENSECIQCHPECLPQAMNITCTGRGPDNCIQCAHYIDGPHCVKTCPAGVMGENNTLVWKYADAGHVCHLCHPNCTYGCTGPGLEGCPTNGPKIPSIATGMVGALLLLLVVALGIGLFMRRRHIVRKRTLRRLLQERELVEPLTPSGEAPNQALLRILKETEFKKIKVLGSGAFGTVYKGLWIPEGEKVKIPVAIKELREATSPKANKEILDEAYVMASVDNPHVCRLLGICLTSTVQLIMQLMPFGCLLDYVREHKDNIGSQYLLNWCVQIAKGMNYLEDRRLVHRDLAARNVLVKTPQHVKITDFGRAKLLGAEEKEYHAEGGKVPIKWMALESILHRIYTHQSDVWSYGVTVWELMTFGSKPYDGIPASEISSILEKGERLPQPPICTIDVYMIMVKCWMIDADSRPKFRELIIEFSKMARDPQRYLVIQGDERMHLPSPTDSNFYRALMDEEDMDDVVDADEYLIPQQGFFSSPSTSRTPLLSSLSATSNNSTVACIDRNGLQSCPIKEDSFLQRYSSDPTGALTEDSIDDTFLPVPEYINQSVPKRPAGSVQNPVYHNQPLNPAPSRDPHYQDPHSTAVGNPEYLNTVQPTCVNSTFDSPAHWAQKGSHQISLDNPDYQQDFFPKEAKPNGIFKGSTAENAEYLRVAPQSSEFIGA

| SMILES | IC50 [1] [nM] | IC50 [2] [nM] |
| --- | --- | --- |
| C=CC(=O)Nc1ccc(OC)c(Nc2cc(-c3c(-c4ccc(F)cc4)nc(SC)n3C)ccn2)c1 | 111 | > 5000 |
| C=CC(=O)Nc1ccc(OC)c(Nc2cc(-c3nc(SC)n(C)c3-c3ccc(F)cc3)ccn2)c1 | 1 | > 5000 |
